Measured values published in patent US20040147595A1, “Biofilm degrading or sloughing compositions and methods” (priority 2001, published 2004).
“Also recorded” adds a separate entry of the source. Where two headings read alike, the source gives them in different places.

Tests used:
Type in all cases: cell-based, Pseudomonas aeruginosa
[1] = test system: las quorum sensing system (lasB-gfp(ASV) expression); assay: PlasB-gfp(ASV) reporter in planktonic wild type P. aeruginosa PAO1; conditions: for reduction in lasB(ASV) expression: wild type P. aeruginosa
Protocol: (§1) AHL and furanone bioassay. Strains were grown exponentially in LB or ABt medium supplemented with 0.5% glucose at 30° C., shading at 250 rpm. At an optical density of approximately 0.8. the cultures were diluted and split into subcultures in glass culture flasks. AHLs and furanone 56 were added to appropriate concentrations and the cultures were further incubated at 30° C. under vigorous shaking. Culture samples were retrieved at various time intervals and green fluorescence was measured with a fluorometer (model RF-1501, Shimadzu, Tokyo, Japan) set at an excitation wavelength of 475 nm and emission wavelength of 515 nm. Relative fluorescence was calculated as green fluorescence normalized to 1 ml culture divided by the optical density (OD600 nm.
The PlasB-gfp(ASV) reporter was inserted into the chromosome of wild type P. aeruginosa. […] The quorum size for lasB-gfp(ASV) induction corresponded to a cell density slightly above […] of 1.0, which is in agreement with other reports (Brumilk & Storey, 1992).

[2] = test system: P. aeruginosa PAO1; assay: Growth (optical density) of P. aeruginosa PAO1
Protocol: as §1
To determine if the furanone compound worked specifically on the las quorum sensor and not indirectly by disruption of primary metabolic functions, we followed growth as optical density of P. aeruginosa PAO1 in the presence of furanone 56. […] Further, we tested whether the furanone affected P. aeruginosa protein synthesis. The wild type P. aeruginosa PAO1 strain containing the consitutive Gfp-expression vector pMH306 was grown in the presence of furanone 56 at concentrations from 0 to 10 μ/ml. Gfp-expression (fluorescence/OD600 nm) was throughout the growth cycle unaffected by the presence of furanone compound (data not shown).

[3] = test system: P. aeruginosa PAO1 biofilm; assay: Wild type P. aeruginosa PAO1 flowcell biofilm, lasB-gfp(ASV) reporter and Rfp tag, long term
Protocol: (§2) P. aeruginosa biofilms. Biofilms were grown at 30° C. in three-dimensional flow cells (Christensen et al., 1999) with individual channel dimensions of 0.3×4×40 mm supplied With ABt minimal medium supplemented with 2% LB. The flow system was assembled and prepared as described by Christensen et al. (1999). The substratum consisted of a microscope glass coverslip (Knittel 24×50 mm st1, Knittel Glaser, Braunschweig, Germany). Cultures for inoculation of the flow channels were prepared in the following way: P. aeruginosa strains were streaked on LB plates with the appropriate antibiotics and incubated for 24 h at 37° C. From each plate a single colony was used for inoculation of 10 ml ABt with 10% LB. The cultures were grown at, 30° C. for 18 h before they were diluted to an OD600 nm of 0.1 in sterile 0.9% NaCl and used for inoculation of the flow channels. Medium flow was kept at a constant rate of 3 mL/h, equivalent to a mean flow velocity of 0.7 mm/s, using a Watson-Marlow 205S peristaltic pump (Watson-Marlow, Falmouth, England). Biofilms were grown for 24 hours before being shifted to media containing AHL and furanone.
(§3) Scanning confocal laser microscopy (SCLM). Microscopic inspection and image acquisition were performed an a scanning confocal laser microscope (model TCS4D, Leica Lasertechnik GmbH, Heldelberg, Germany) equipped with a 63×/1.32-0.6 oil objective. The microscope was equipped with a motorized and programmable xy-stage, which was used for monitoring single colonies during the biofilm experiments. At the beginning of each online experiment, the microscope was programmed to track single randomly selected microcolonies; the sensitivity of photo multipliers and the laser intensity were adjusted and thereafter kept constant through out the duration of the experiments. Image scanning was carried out using the 488 nm and 568 nm lines of an Ar/Kr laser for detection of Gfp and Rfp, respectively. Visualization of captured images was performed using the IMARIS software package (Bitplane AG, Zúrich, Switzerland) running on a Silicon Graphics Indigo 2 workstation (Silicon Graphics, Mountain View, Calif. USA).
Furanone 66 represses lasB-expression in wild type P. aeruginosa biofilms. Wild type P. aeruginosa (PAO1) carrying a chromosomally integrated lasB-gfp(ASV) reporter system was grown in flowcells similar to the PAO-JP2-based reporter strain. We focused on studying the effect of furanone 56 in loan term biofilm experiments. In favor of this approach is the observation by Davies et al. (1998) that quorum sensing is involved in maturation of P. aeruginosa biofilms (up to 2 weeks old). In order to support such longterm cultivation, the biofilm medium was modified to contain 0.3 mM glucose instead of 2% LB as a carbon source. In addition, the recently available Red Fluorescent Protein (Rfp) derived from the indopacific sea anemone Discosome was employed to provide a red fluorescent tag on the biofilm bacteria. A mini-Tn5 transposon with the dsred gene under control of the strong constitutive lac promoter was inserted into the chromosome of PAO1 containing the lasB reporter system.
The dual-labeled PAO1 strain was inoculated A grown in flowcells in the absence and presence of 5 μg/ml furanone 56. The flowcells were inspected daily for ten days and scanning confocal photomicrographs were captured (FIG. 6 & 7). For clarity, the green and red fluorescent signals from the same area of the biofilm are shown separately. Because the cells constitutively express Rfp, the red color correlates with cell mass, whereas the green fluorescence indicates active transcription of the lasB-gfp(ASV) reporter gene in response to on-going bacterial communication.

[4] = test system: P. aeruginosa PAO-JP2; assay: Growth of P. aeruginosa PAO-JP2; conditions: data not shown
[5] = test system: V. fisheri lux quorum sensing system (LuxR); assay: V. fisheri luxR PluxI-gfp(ASV) reporter in PAO-JP2 biofilm
Protocol: as §2, §3
Repression of LuxR-activated quorum sensing controlled gene transcription. We speculated that the AHL-antagonstic properties of furanone 56 was specific to the P. aeruginosa las quorum sensing system. To test this, a previously published quorum sensing reporter based on the Vibro fisherf luxR gene and Pluxl-gfp(ASV) (Anderson at al, 2001; Wu et al, 2000) was transferred to PAO-JP2.

O=C1C=C/C(=C/Br)O1 [furanone 56]
reduction in lasB(ASV) expression ([1]; 5 μg/ml (28.5 μM) furanone): 40%
reduction in lasB(ASV) expression ([1]; 10 μg/ml furanone): 60%
reduction of transcription of the lasB promoter ([1]; planktonic cultures of PAO1): approximately 2 fold
concentrations without effect on growth [2]: < 10 µg/mL
effect on growth ([2]; PAO1, concentrations used for this study (up to 10 μg/ml)): no or only little effect on growth
concentrations without effect on growth ([2]; listed as furanone): below 10 μg/ml
reporter system in biofilms ([3]; 5 μg/ml furanone 56): partially shut down
complete inhibition of the lasB-gfp(ASV) reporter in all biofilm bacteria ([3]; concentrations with no effect on growth (<10 μg/ml)): not achievable
bacterial signaling (green fluorescence) ([3]; day 1, 5 μg/ml furanone 56): greatly reduced
early biofilm formation ([3]; day 1, 5 μg/ml furanone 56): not or only slightly affected
green fluorescence of biofilm cells ([3]; day 7, 5 μg/ml furanone 56): far less green fluorescence
average biofilm thickness ([3]; day 7, 5 μg/ml furanone 56 (untreated 61±6 μm)): 23±4 μm
biofilm maturation ([3]; wild type biofilm grown in the presence of furanone): failed to mature
effect on growth rate [4]: no effect on growth rate
green fluorescence of biofilm ([5]; 250 nM OHHL and 15 μg/ml furanone 56, 7 hours): completely disappeared
green fluorescence of biofilm ([5]; 250 nM OHHL and 15 μg/ml furanone 56, six hours): almost completely disappeared
green fluorescence of biofilm ([5]; 250 nM OHHL and 15 μg/ml furanone 56, two hours): significantly less green fluorescent; also recorded: decreased significantly
